Where two headings read alike, the source gives them in different places.
Legend:
[1] = system: VEEV (TC-83); assay: microbe, parasite or virus in culture; type: cell-based; conditions: Venezuelan equine encephalitis virus, U-87 MG, 18 h, read-out: VEEV EC50
[2] = in vitro; conditions: human
[3] = system: RSV-A; assay: RSV-A cytopathic effect (CPE) reduction assay in HEp-2 cells, MTS read-out; type: cell-based, human respiratory syncytial virus, RSV-A strain Long; conditions: for EC50: read-out: RSV-A EC50
[4] = in vitro; conditions: human; remark: listed apart in the source
[5] = human respiratory syncytial virus, HEp-2, 96 h
[6] = HEp-2 cells, inhibition of virus-induced cytopathogenicity by 50%, MOI 0.01, 4 days

Molecule	EC50 [1] [µM]	CC50 [2] [µM]	EC50 [3, 5] [µM]	CC50 at 4 days [4] [µM]	anti-RSV activity (in words) ([3]; HEp-2 cells)	loss of activity against RSV-A relative to compound 4d ([3]; HEp-2 cells) [fold]	EC50 [3, 6] [µM]
COc1ccc(-c2cnc3[nH]cc(C#Cc4cccnc4)c3c2)cc1 [Compound 4a, 5-(4-Methoxyphenyl)-3-(pyridin-3-ylethynyl)-1H-pyrrolo[2,3-b]pyridine]	6.81 ± 1.87	> 10	0.048 ± 0.037	0.24 ± 0.23			
COc1cccc(-c2cnc3[nH]cc(C#Cc4cccnc4)c3c2)c1 [Compound 4b]	> 10	> 10	0.67 ± 0.43	6 ± 5.66			
COc1ccccc1-c1cnc2[nH]cc(C#Cc3cccnc3)c2c1 [Compound 4c]	5.34 ± 1.87	> 10	0.69 ± 0.32	6 ± 5.66			
COc1cc(-c2cnc3[nH]cc(C#Cc4cccnc4)c3c2)cc(OC)c1OC [Compound 4e]	1.5 ± 0.17	> 10	0.71 ± 0.55	1.2 ± 1.13			
COCCOc1ccc(-c2cnc3[nH]cc(C#Cc4cccnc4)c3c2)cc1 [Compound 4f]	> 10	> 10	30 ± 28.3	> 50	completely devoid of anti-RSV activity		
COc1cc(-c2cnc3[nH]cc(C#Cc4cccnc4)c3c2)ccn1 [Compound 4g]	> 10	> 10	2.71 ± 1.01	> 50			
Clc1cccc(-c2cnc3[nH]cc(C#Cc4cccnc4)c3c2)c1 [Compound 4h]	> 10	> 10	2.89 ± 2.24	> 50			
Fc1ccc(-c2cnc3[nH]cc(C#Cc4cccnc4)c3c2)cc1 [Compound 4i]	9.05 ± 1.03	> 10	2.23 ± 1.32	> 50			
C(#Cc1c[nH]c2ncc(-c3ccoc3)cc12)c1cccnc1 [Compound 4j]	> 10	> 10	47.8 ± 3.07	> 50	completely devoid of anti-RSV activity		
C(#Cc1c[nH]c2ncc(-c3ccsc3)cc12)c1cccnc1 [Compound 4k]	> 10	> 10	4.83 ± 1.44	> 50			
COc1cc(OC)cc(-c2cnc3[nH]cc(C#Cc4ccccn4)c3c2)c1 [Compound 5a]	> 10	> 10	0.08	0.24 ± 0.23			
COc1cc(OC)cc(-c2cnc3[nH]cc(C#Cc4ccccc4)c3c2)c1 [Compound 5b]	> 10	> 10	1.59 ± 0.59	6 ± 4.35			
COc1cc(OC)cc(-c2cnc3[nH]cc(C#Cc4ccc(F)cc4)c3c2)c1 [Compound 5c]	6.27 ± 0.93	> 10	0.36 ± 0.064	1.66 ± 0.89			
COc1cc(OC)cc(-c2cnc3[nH]cc(C#Cc4cccc(Cl)c4)c3c2)c1 [Compound 5d]	6.13 ± 0.94	> 10	16.3	> 50		30	
COc1cccc(C#Cc2c[nH]c3ncc(-c4cc(OC)cc(OC)c4)cc23)c1 [Compound 5e]	6.29 ± 2.71	> 10	2.75 ± 0.24	> 50		5	
COc1cc(OC)cc(-c2cnc3[nH]cc(C#Cc4ccsc4)c3c2)c1 [Compound 5f]	4.3 ± 0.47	> 10	0.31 ± 0.13	1.84 ± 0.95			
CN1CCN(C)/C(=N/c2ccc([N+](=O)[O-])cc2C(=O)Nc2ccccc2)C1 [ML-336, (E)-2-((1,4-Dimethylpiperazin-2-ylidene)amino)-5-nitro-N-phenylbenzamide, reference compound]	0.04 ± 0.01	> 10					
NC(=O)c1ncn([C@@H]2O[C@H](CO)[C@@H](O)[C@H]2O)n1 [Ribavirin, reference compound]			3.11 ± 1.85	> 50			
Cc1ccc(CCCO)c(NCc2ccc3nc(NCCCN4CCOCC4)n(Cc4nc(C)ccc4O)c3c2)c1 [TMC353121, reference compound]							0.0013 ± 0.0008
dextran sulfate sodium salt [DS-10000, reference compound]							0.068 ± 0.045
